The values below come from US20250092051A1, “NLRP3 MODULATORS AND USE THEREOF” (Bioentropy Inc., priority 2023, published 2025).

A word on the IC50: it is the concentration needed to halve the response being measured.

Each structure is given as a SMILES string.

For assay [1], the target named is T1, NLRP3 (Homo sapiens, UniProt Q96P20).
T1 construct: host or cells: THP-1 cells, PMA-differentiated, LPS-primed, nigericin-stimulated
Nature of the assay: IL-1β assay (ELISA of THP-1 culture supernatant). It counts as cell-based. Particulars: PMA-differentiated THP-1, LPS 50 ng/ml 4 h, compound 30 min, nigericin 15 μM 45 min; Human IL-1β ELISA. On the procedure: (§1) THP-1 cell lines (procell, #CL-0233) were cultured in RPMI-1640 medium (Gibco, #C11875500BT) supplemented with 10% FBS, 100 U/ml penicillin, 100 µg/ml streptomycin and 0.05 mM β-mercaptoethanol (BME). THP-1 cells were seeded at 5×10^5/ml in 12 well plates and were differentiated into macrophages by incubation with 5 ng/ml PMA (Sigma, #P8139-1MG) for 48 h. Cells were washed with PBS and then were primed with 50 ng/ml LPS (InvivoGen, #tlrl-b5lps) for 4 h. Medium were removed and replaced with serum free medium (SFM) containing compound (2.5-40 nM) or MCC950 (5-25 nM) for 30 min. Cells were then stimulated with 15 μM nigericin (Invivogen, #tlrl-nig) for 45 min.
The culture supernatant of THP-1 was removed and analyzed using Human IL-1β ELISA Kit according to the manufacturer's instructions (Beyotime, #PI305). The IL-1β concentration was measured at 450 nm wavelength of absorbance and calculated.
(In general: In an ELISA, binding on a coated surface is turned into a signal by an enzyme label.)

The target in assay [2] is T1, NLRP3. The assay can be described thus: THP-1 pyroptosis assay (caspase-1 p20 in supernatant by Western blot). It counts as cell-based. The note with it: PMA-differentiated THP-1, LPS 50 ng/ml 4 h, compound 30 min, nigericin 15 μM 45 min; caspase-1 p20 Western blot. On the procedure:
as §1
The protein of supernatants was concentrated using StrataClean™ resin (Agilent, #400714) according to the manufacturer's instructions. The protein samples were resolved on 4-20% SDS-PAGE gels and transferred onto 0.45 PVDF membrane (Immobilon-P #IPVH00010) using a wet transfer system. Membranes were blocked in 5% (w/v) dried milk in PBST for 1 h at room temperature. Membranes were incubated with primary antibody (Adipogen, #AG-20B-0048B-C100) diluted in Primary Antibody Dilution Buffer (Beyotime, #P0023A-100 ml) according to the manufacturer's instructions, followed by incubation with the IgG(H+L) (HRP-labeled Goat Anti-Mouse IgG(H+L) (Beyotime, #A0216) diluted in 1% (w/v) dried milk in PBST for 1 h. The protein expression was visualized using Super ECL Detection Reagent (YEASEN,
FIG. 1. Results of Western blots for THP-1 cell-based pyroptosis assay using the cleavage of caspase-1 into p20 as reporting indication of NLRP3 inhibition. […] Molecule N-027 (Compound #51) and N-027B (Compound #53) inhibits NLRP3 inflammasome activation in macrophages, N-027 IC50 (caspase-1)<5 nM; N-027B IC50 (caspase-1) 1 nM. THP-1 cells were primed for 4 h with LPS (50 ng/ml), and then LPS-primed THP-1 cells were incubated with N-027 or N-027B for 30 min and then stimulated with nigericin (15 μM) for 45 min. Caspase-1 (p20) in supernatants were measured by Western blots.
For orientation: In western blotting, separated proteins are transferred to a membrane and probed.

T1 sequence (Q96P20 whole entry): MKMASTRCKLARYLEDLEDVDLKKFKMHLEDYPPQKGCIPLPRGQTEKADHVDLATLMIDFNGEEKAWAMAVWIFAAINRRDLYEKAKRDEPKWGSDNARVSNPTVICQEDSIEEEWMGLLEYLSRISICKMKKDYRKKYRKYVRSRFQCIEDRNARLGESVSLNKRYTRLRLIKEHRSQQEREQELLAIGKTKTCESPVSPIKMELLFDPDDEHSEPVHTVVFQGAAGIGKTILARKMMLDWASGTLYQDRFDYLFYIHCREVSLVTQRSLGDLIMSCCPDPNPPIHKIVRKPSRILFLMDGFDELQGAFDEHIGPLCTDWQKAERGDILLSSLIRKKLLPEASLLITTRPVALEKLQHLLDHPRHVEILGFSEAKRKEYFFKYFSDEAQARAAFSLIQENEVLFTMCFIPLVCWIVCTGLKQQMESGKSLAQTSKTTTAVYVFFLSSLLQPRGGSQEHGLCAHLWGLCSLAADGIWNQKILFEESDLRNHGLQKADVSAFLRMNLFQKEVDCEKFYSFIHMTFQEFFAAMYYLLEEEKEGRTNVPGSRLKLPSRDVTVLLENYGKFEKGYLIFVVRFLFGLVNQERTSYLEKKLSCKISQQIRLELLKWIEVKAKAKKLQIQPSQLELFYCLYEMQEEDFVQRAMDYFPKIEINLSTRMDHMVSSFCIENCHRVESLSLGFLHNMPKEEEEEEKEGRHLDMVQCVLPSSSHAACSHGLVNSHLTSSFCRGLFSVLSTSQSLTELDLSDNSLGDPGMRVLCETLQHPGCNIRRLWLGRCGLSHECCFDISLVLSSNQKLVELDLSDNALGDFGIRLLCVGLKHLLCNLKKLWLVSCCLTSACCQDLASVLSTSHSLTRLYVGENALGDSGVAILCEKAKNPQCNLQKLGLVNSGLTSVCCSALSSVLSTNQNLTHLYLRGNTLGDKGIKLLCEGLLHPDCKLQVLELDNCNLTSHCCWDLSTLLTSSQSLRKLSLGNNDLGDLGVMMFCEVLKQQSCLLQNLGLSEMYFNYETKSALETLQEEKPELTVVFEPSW

As for `O=c1[nH]c(N2CCOCC2)nc2nn(-c3c(F)cc(C4CC4)cc3C(F)(F)F)nc12` [Compound 105, 2-(4-cyclopropyl-2-fluoro-6-(trifluoromethyl)phenyl)-5-morpholino-2,6-dihydro-7H-[1,2,3]triazolo[4,5-d]pyrimidin-7-one], the IC50 is < 10 nM on NLRP3 [1] and < 6 nM against NLRP3 [2].

As to `CCN1CCN(c2nc3nn(-c4c(C)cc(C5CC5)cc4F)nc3c(=O)[nH]2)CC1` [Compound 106, 2-(4-cyclopropyl-2-fluoro-6-methylphenyl)-5-(4-ethylpiperazin-1-yl)-2,6-dihydro-7H-[1,2,3]triazolo[4,5-d]pyrimidin-7-one], the IC50 against NLRP3 [1] and against NLRP3 [2] was > 100 nM throughout.
